Data published in US20240100127A1, “TIRZEPATIDE THERAPEUTIC METHODS” (Eli Lilly and Company, priority 2021, published 2024).

Test system: patients with T2DM with HbA1c between ≥7.0% and ≤10.5% on metformin or metformin plus an SGLT-2 inhibitor
Assay: Example 1 clinical trial using tirzepatide, 52 weeks, versus insulin degludec
Type: in vivo, human
Settings: standard titration protocol
Description: The enrollment criteria, set forth in Table 1 below, are designed to include participants who are similar to patients seen within a typical diabetes practice, and include some patient with type 2 diabetes that is refractory to oral treatment. Geriatric patients are included. Mean duration with type 2 diabetes about 8 years. Study continues for 52 weeks.
The study is designed to consist of a screening visit followed by a single-blind 3-week placebo run-in period. Afterwards, patients are randomized to tirzepatide 5, 10, or 15 mg (dosed using an escalation dose protocol) or insulin degludec (standard titration protocol) and followed at approximately monthly intervals. Patients receiving insulin degludec follow standard insulin degludec titration protocol during the study. Study protocol includes blood pressure measurement at each visit and serum lipid profile at study initiation and at 52 weeks using standard clinical methods. Blood Pressure measures using the methods of Example 1 are represented in FIGS. 3 and 4. HDL-C levels using the methods of Example 1 are represented in FIG. 1.

insulin degludec was tested, and the “Percent patients achieving ≤5.7% HbA1c by 52 weeks” value was “insulin degludec: 5.4%”.
